# Laboratory results reported in US20230201290A1, “TGF-BETA INHIBITION, AGENTS AND COMPOSITION THEREFOR” (GMP BIOTECHNOLOGY LIMITED, priority 2020, published 2023).
# Assays:
# TGF-β2 secretion = TGF-β2 secretion in human tumor cell lines; format: cell-based; settings: human HGG cell line A-172, 7 days, 10 trabedersen (unit not given)
# Description: The effect of trabedersen on TGF-β2 secretion was analyzed in cell lines of human HGG, human pancreatic carcinoma, malignant melanoma, colorectal carcinoma, and other tumors (prostate carcinoma, renal cell carcinoma, and non-small cell lung carcinoma). The TGF-β2 concentration in cell culture supernatants after treatment with trabedersen for 7 days was analyzed.
# The biological activity of truncated trabedersen, i.e. metabolites, in comparison to full-length trabedersen with respect to inhibition of TGF-β2 secretion was tested in the human HGG cell line A-172.
# [1] = tested on: advanced pancreatic cancer; assay: Phase I/II study P001: patients with pancreatic cancer; format: in vivo, human
# Excerpt: P001 is a completed Phase I/II dose escalation study. Primary objective is the determination of the MTD as well as the DLT of 2 cycles as core treatment and up to 8 optional extension cycles of trabedersen administered i.v. for 4 or 7 d every other week, as described in the following. The study followed a classical cohort design with 3 evaluable patients per cohort. Patients treated with the 1st schedule received trabedersen continuously for 7 d, followed by a treatment-free interval of 7 d for each treatment cycle (7-d-on, 7-d-off). After the MTD had been reached for this schedule, a 2nd schedule of 4 d trabedersen administration, followed by a treatment-free interval of 10 d for each treatment cycle was started (4-d-on, 10-d-off). In this treatment schedule the MTD has not been reached.
# Trabedersen was administered as i.v. continuous infusion for 4 or 7 days every other week via an implanted subcutaneous port system connected to a portable pump and with a flow rate of 0.8 mL/h. The core treatment consisted of 2 treatment cycles. Up to 8 optional extension cycles were administered in case of clinical benefit.
# The overall survival is calculated for all patients as the survival time from the onset of treatment with study medication to death due to any cause and analyzed with the Kaplan-Meier method.
# Altogether 21 patients with pancreatic cancer were treated during dose escalation.
# There was no clear dose-response relationship, neither in the 7-days-on, 7-days-off schedule nor in the 4-days-on, 10-days-off schedule. A similar pattern is seen when the 5 patients with malignant melanoma and 5 patients with colorectal cancer treated during dose-escalation are also included.
substance,measurement,setting,value
"cggcatgtct attttgta (antisense CGGCATGTCTATTTTGTA; chemistry not given here) [OT-101, synthetic antisense oligodeoxynucleotide against TGF-beta2]",highest inhibitory effect on TGF-β2 secretion,TGF-β2 secretion,64%
same,mOS,"[1]; 2nd-line therapy, independent of dose and schedule",8.9 months
same,mOS,"[1]; 2nd-line, 140 mg/m^2/day 4-on/10-off, no subsequent chemotherapy",2.6 months
same,mOS,"[1]; 2nd-line, 140 mg/m^2/day 4-on/10-off, with subsequent chemotherapy",16.9 months
same,mOS,"[1]; 2nd-line, 140 mg/m^2/day, 4-days-on, 10-days-off",14.5 months
same,"Median Overall Survival, Patients with pancreatic cancer","[1]; 4-days-on, 10-days-off, 140 mg/m^2/day",14.5 months
same,"Median Overall Survival, Patients with pancreatic cancer","[1]; 4-days-on, 10-days-off, 140 mg/m^2/day (additional patients)",3.3 months
same,"Median Overall Survival, Patients with pancreatic cancer","[1]; 4-days-on, 10-days-off, 190 mg/m^2/day",6.2 months
same,"Median Overall Survival, Patients with pancreatic cancer","[1]; 4-days-on, 10-days-off, 250 mg/m^2/day",7.3 months
same,"Median Overall Survival, Patients with pancreatic cancer","[1]; 4-days-on, 10-days-off, 330 mg/m^2/day",2.4 months
same,"Median Overall Survival, Patients with pancreatic cancer","[1]; 7-days-on, 7-days-off, 40 mg/m^2/day",6.9 months
same,"Median Overall Survival, Patients with pancreatic cancer","[1]; 7-days-on, 7-days-off, 80 mg/m^2/day",4.6 months
same,"Median Overall Survival, Patients with pancreatic cancer","[1]; 7-days-on, 7-days-off, 160 mg/m^2/day",3.9 months
same,"Median Overall Survival, Patients with pancreatic cancer","[1]; 7-days-on, 7-days-off, 240 mg/m^2/day",5.5 months
same,mOS,"[1]; all 35 pancreatic carcinoma patients, independent of dose and schedule",4.9 months
same,mOS,"[1]; dose escalation, 4-days-on, 10-days-off schedule",9.3 months
same,mOS,"[1]; dose escalation, 7-days-on, 7-days-off schedule",5.7 months
